According to patent US20250041315A1, “LEVONORGESTREL BUTANOATE FORMULATION AND METHODS RELATING THERETO” (The USA, as Represented by the Secretary, Department of …, priority 2021, published 2025):

Key:
[1] = injections at 3-month intervals; cited from earlier work
[2] = Effect of gamma irradiation sterilization on spray dried LNGB particles (colour, qualitative HPLC); format: physicochemical
Procedure: In this comparative example, a sample of LNGB particles was prepared using a gamma irradiation step to sterilize spray dried particles. The LNGB particles were obtained by spray drying and then were subjected to gamma irradiation to evaluate the effect of irradiation on the particles. […] Qualitative HPLC was performed to compare the peak profiles of the LNGB particles before and after irradiation. FIGS. 2-5 show HPLC traces of the sample before (FIG. 2) and after (FIGS. 3-5) irradiation. Irradiated samples generated three major peaks, A, D, and E, at >0.15%, as well as a small peak, C, at ˜0.07%. […] In N2- and Ar-purged irradiated samples (FIGS. 4 and 5, respectively), peaks F and G were not resolved from other peaks (either degradation products or gradient artifacts).

For `CC(=O)O[C@]1(C(C)=O)CC[C@H]2[C@@H]3C[C@H](C)C4=CC(=O)CC[C@]4(C)[C@H]3CC[C@@]21C` [DMPA, Depomedroxyprogesterone Acetate], the typical failure rate [1] is given as 4%.

In the case of `C#C[C@]1(OC(=O)CCC)CC[C@H]2[C@@H]3CCC4=CC(=O)CC[C@@H]4[C@H]3CC[C@@]21CC` [LNGB particles, Levonorgestrel butanoate], the “major impurity peaks A, D, and E (HPLC) after irradiation” value ([2]; irradiated samples) is reported as > 0.15%, the “small impurity peak C (HPLC) after irradiation” value ([2]; irradiated samples) is reported as ~0.07% and the “colour of particles after gamma irradiation” value ([2]; spray dried particles, gamma irradiated, initial particles white/translucent) is reported as “yellow color”.
